According to ChEMBL document CHEMBL3994622, “Design and synthesis of new RAF kinase-inhibiting antiproliferative quinoline derivatives. Part 2: Diarylurea derivatives” (Eur J Med Chem, 2017):

Legend:
KM12 = test: Growth inhibition of human KM12 cells assessed as cell growth at 0.005 uM incubated for 48 hrs by sulforhodamine B assay relative to control; assay type: functional; settings: KM12, 48 h, read-out: Activity
Malme-3M [1] = test: Growth inhibition of human MALME-3M cells assessed as cell growth at 0.005 uM incubated for 48 hrs by sulforhodamine B assay relative to control; assay type: functional; settings: read-out: Activity
IGROV-1 = test: Growth inhibition of human IGROV1 cells assessed as cell growth at 0.005 uM incubated for 48 hrs by sulforhodamine B assay relative to control; assay type: functional; settings: IGROV-1, 48 h, read-out: Activity
OVCAR-5 = test: Growth inhibition of human OVCAR5 cells assessed as cell growth at 0.005 uM incubated for 48 hrs by sulforhodamine B assay relative to control; assay type: functional; settings: OVCAR-5, 48 h, read-out: Activity
OVCAR-8 = test: Growth inhibition of human OVCAR8 cells assessed as cell growth at 0.005 uM incubated for 48 hrs by sulforhodamine B assay relative to control; assay type: functional; settings: OVCAR-8, 48 h, read-out: Activity
RXF 393 [2] = test: Growth inhibition of human RXF393 cells assessed as cell growth at 0.005 uM incubated for 48 hrs by sulforhodamine B assay relative to control; assay type: functional; settings: RXF 393, 48 h, read-out: Activity
MDA-MB-231 = test: Growth inhibition of human MDA-MB-231 cells assessed as cell growth at 0.005 uM incubated for 48 hrs by sulforhodamine B assay relative to control; assay type: functional; settings: MDA-MB-231, 48 h, read-out: Activity
BT-549 = test: Growth inhibition of human BT549 cells assessed as cell growth at 0.005 uM incubated for 48 hrs by sulforhodamine B assay relative to control; assay type: functional; settings: BT-549, 48 h, read-out: Activity
NCI-H322M [3] = test: Growth inhibition of human NCI-H322M cells assessed as cell growth at 0.05 uM incubated for 48 hrs by sulforhodamine B assay relative to control; assay type: functional; settings: read-out: Activity
SF-539 [4] = test: Growth inhibition of human SF539 cells assessed as cell growth at 0.05 uM incubated for 48 hrs by sulforhodamine B assay relative to control; assay type: functional; settings: SF-539, 48 h, read-out: Activity
SNB-75 = test: Growth inhibition of human SNB75 cells assessed as cell growth at 0.05 uM incubated for 48 hrs by sulforhodamine B assay relative to control; assay type: functional; settings: SNB-75, 48 h, read-out: Activity
A498 = test: Growth inhibition of human A498 cells assessed as cell growth at 0.05 uM incubated for 48 hrs by sulforhodamine B assay relative to control; assay type: functional; settings: A498, 48 h, read-out: Activity
PC-3 [5] = test: Growth inhibition of human PC3 cells assessed as cell growth at 0.05 uM incubated for 48 hrs by sulforhodamine B assay relative to control; assay type: functional; settings: PC-3, 48 h, read-out: Activity
DU-145 = test: Growth inhibition of human DU145 cells assessed as cell growth at 0.05 uM incubated for 48 hrs by sulforhodamine B assay relative to control; assay type: functional; settings: DU-145, 48 h, read-out: Activity
HL-60(TB) [6] = test: Growth inhibition of human HL-60(TB) cells assessed as cell growth at 0.5 uM incubated for 48 hrs by sulforhodamine B assay relative to control; assay type: functional; settings: HL-60, 48 h, read-out: Activity
COLO 205 = test: Growth inhibition of human COLO205 cells assessed as cell growth at 0.5 uM incubated for 48 hrs by sulforhodamine B assay relative to control; assay type: functional; settings: COLO 205, 48 h, read-out: Activity
SNB-19 = test: Growth inhibition of human SNB19 cells assessed as cell growth at 0.5 uM incubated for 48 hrs by sulforhodamine B assay relative to control; assay type: functional; settings: SNB-19, 48 h, read-out: Activity
MDA-MB-435 = test: Growth inhibition of human MDA-MB-435 cells assessed as cell growth at 0.5 uM incubated for 48 hrs by sulforhodamine B assay relative to control; assay type: functional; settings: MDA-MB-435, 48 h, read-out: Activity
RXF 393 [7] = test: Growth inhibition of human RXF393 cells assessed as cell growth at 0.5 uM incubated for 48 hrs by sulforhodamine B assay relative to control; assay type: functional; settings: RXF 393, 48 h, read-out: Activity
HL-60(TB) [8] = test: Growth inhibition of human HL-60(TB) cells assessed as cell growth at 5 uM incubated for 48 hrs by sulforhodamine B assay relative to control; assay type: functional; settings: HL-60, 48 h, read-out: Activity
SW-620 = test: Growth inhibition of human SW620 cells assessed as cell growth at 5 uM incubated for 48 hrs by sulforhodamine B assay relative to control; assay type: functional; settings: SW-620, 48 h, read-out: Activity
SF-539 [9] = test: Growth inhibition of human SF539 cells assessed as cell growth at 5 uM incubated for 48 hrs by sulforhodamine B assay relative to control; assay type: functional; settings: SF-539, 48 h, read-out: Activity
OVCAR-4 = test: Growth inhibition of human OVCAR4 cells assessed as cell growth at 5 uM incubated for 48 hrs by sulforhodamine B assay relative to control; assay type: functional; settings: OVCAR-4, 48 h, read-out: Activity
ACHN = test: Growth inhibition of human ACHN cells assessed as cell growth at 5 uM incubated for 48 hrs by sulforhodamine B assay relative to control; assay type: functional; settings: read-out: Activity
NCI-H322M [10] = test: Growth inhibition of human NCI-H322M cells assessed as cell growth at 50 uM incubated for 48 hrs by sulforhodamine B assay relative to control; assay type: functional; settings: read-out: Activity
NCI-H460 = test: Growth inhibition of human NCI-H460 cells assessed as cell growth at 50 uM incubated for 48 hrs by sulforhodamine B assay relative to control; assay type: functional; settings: NCI-H460, 48 h, read-out: Activity
SF-268 = test: Growth inhibition of human SF268 cells assessed as cell growth at 50 uM incubated for 48 hrs by sulforhodamine B assay relative to control; assay type: functional; settings: SF-268, 48 h, read-out: Activity
SF-539 [11] = test: Growth inhibition of human SF539 cells assessed as cell growth at 50 uM incubated for 48 hrs by sulforhodamine B assay relative to control; assay type: functional; settings: SF-539, 48 h, read-out: Activity
Malme-3M [12] = test: Growth inhibition of human MALME-3M cells assessed as cell growth at 50 uM incubated for 48 hrs by sulforhodamine B assay relative to control; assay type: functional; settings: read-out: Activity
PC-3 [13] = test: Growth inhibition of human PC3 cells assessed as cell growth at 50 uM incubated for 48 hrs by sulforhodamine B assay relative to control; assay type: functional; settings: PC-3, 48 h, read-out: Activity
[14] = target: Platelet-derived growth factor receptor beta (Homo sapiens) (UniProt P09619); test: Inhibition of human PDGFRbeta at 10 uM using poly[Glu:Tyr] (4:1) as substrate in presence of [33P]ATP by Hotspot assay relative to control
Homo sapiens = species: Homo sapiens; test: Selectivity index, ratio of IC50 for human BRAF V600E mutant to IC50 for human c-RAF
HCT-15 = test: Growth inhibition of human HCT15 cells assessed as cell growth at 100 uM incubated for 48 hrs by sulforhodamine B assay relative to control; assay type: functional; settings: HCT-15, 48 h, read-out: Activity
MDA-MB-468 = test: Growth inhibition of human MDA-MB-468 cells assessed as cell growth at 100 uM incubated for 48 hrs by sulforhodamine B assay relative to control; assay type: functional; settings: MDA-MB-468, 48 h, read-out: Activity

Chain of Platelet-derived growth factor receptor beta (Homo sapiens) (P09619 whole entry): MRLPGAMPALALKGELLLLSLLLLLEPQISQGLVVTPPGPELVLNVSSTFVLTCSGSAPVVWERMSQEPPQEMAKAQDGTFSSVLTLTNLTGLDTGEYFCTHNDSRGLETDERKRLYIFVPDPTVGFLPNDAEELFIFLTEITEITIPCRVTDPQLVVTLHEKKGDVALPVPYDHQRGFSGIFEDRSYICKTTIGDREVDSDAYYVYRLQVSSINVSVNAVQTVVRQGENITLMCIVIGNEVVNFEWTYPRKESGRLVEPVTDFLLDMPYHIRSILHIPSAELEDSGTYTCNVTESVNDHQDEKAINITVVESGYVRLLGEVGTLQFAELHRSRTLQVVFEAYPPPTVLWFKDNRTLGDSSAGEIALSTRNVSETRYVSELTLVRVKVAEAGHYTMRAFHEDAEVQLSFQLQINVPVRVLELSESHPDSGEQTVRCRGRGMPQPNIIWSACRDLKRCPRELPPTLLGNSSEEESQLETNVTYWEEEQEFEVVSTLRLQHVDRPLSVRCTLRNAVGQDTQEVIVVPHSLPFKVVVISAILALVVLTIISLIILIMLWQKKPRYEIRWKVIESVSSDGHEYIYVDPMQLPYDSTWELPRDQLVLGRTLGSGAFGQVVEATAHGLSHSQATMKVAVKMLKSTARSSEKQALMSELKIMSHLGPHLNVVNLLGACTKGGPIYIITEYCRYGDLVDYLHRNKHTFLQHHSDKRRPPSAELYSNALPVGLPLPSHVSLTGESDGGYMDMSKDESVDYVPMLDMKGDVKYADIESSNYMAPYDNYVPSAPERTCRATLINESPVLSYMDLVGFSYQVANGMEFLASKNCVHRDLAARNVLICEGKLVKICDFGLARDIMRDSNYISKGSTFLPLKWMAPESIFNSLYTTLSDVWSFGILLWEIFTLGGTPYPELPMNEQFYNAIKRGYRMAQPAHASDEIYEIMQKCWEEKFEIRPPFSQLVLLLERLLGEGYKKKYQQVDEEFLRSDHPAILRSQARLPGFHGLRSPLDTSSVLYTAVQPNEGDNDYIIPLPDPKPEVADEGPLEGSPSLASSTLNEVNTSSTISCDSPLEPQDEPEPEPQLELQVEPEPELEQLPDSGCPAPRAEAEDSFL

COc1cc2cc(Oc3ccc(NC(=O)Nc4cccc(C(F)(F)F)c4)cc3)c(C)nc2cc1OC
growth at 0.005 µM (KM12): 90%
growth at 0.005 µM (Malme-3M [1]): 94%
growth at 0.005 µM (IGROV-1): 101%
growth at 0.005 µM (OVCAR-5): 103%
growth at 0.005 µM (OVCAR-8): 101%
growth at 0.005 µM (RXF 393 [2]): 94%
growth at 0.005 µM (MDA-MB-231): 93%
growth at 0.005 µM (BT-549): 96%
growth at 0.05 µM (NCI-H322M [3]): 96%
growth at 0.05 µM (SF-539 [4]): 96%
growth at 0.05 µM (SNB-75): 99%
growth at 0.05 µM (A498): 106%
growth at 0.05 µM (PC-3 [5]): 99%
growth at 0.05 µM (DU-145): 94%
growth at 0.5 µM (HL-60(TB) [6]): 112%
growth at 0.5 µM (COLO 205): 102%
growth at 0.5 µM (SNB-19): 96%
growth at 0.5 µM (MDA-MB-435): 89%
growth at 0.5 µM (RXF 393 [7]): 103%
growth at 5 µM (HL-60(TB) [8]): -13%
growth at 5 µM (SW-620): 20%
growth at 5 µM (SF-539 [9]): 26%
growth at 5 µM (OVCAR-4): 25%
growth at 5 µM (ACHN): 8%
growth at 50 µM (NCI-H322M [10]): -29%
growth at 50 µM (NCI-H460): -60%
growth at 50 µM (SF-268): -32%
growth at 50 µM (SF-539 [11]): -82%
growth at 50 µM (Malme-3M [12]): -60%
growth at 50 µM (PC-3 [13]): -65%

COc1cc2cc(Oc3ccc(NC(=O)Nc4ccc(Cl)c(C(F)(F)F)c4)cc3)c(C)nc2cc1OC
inhibition [14]: 29.5%
Ratio IC50 (Homo sapiens): 2.6

COc1cc2cc(Oc3ccc(NC(=O)Nc4cc(C(F)(F)F)cc(C(F)(F)F)c4)cc3)c(C)nc2cc1OC
growth at 100 µM (HCT-15): -88%
growth at 100 µM (MDA-MB-468): -67%
